Results on 1 compound are retold here after article PMC4845862, “Quantification of active mitochondrial permeability transition pores using GNX-4975 inhibitor titrations provides insights into molecular identity” (Biochemical Journal, 2016).

This assay relates to adenine nucleotide translocase (ANT). In words: Binding of solubilized heart IMM proteins to immobilized phenylarsine oxide (Western blot of ANT). Set-up: species or system beef and pig. To be noted: heart mitochondria treated with 10 μM CAT prior to IMM isolation and solubilization. Here is the method:
Centrifugation steps in this process were carried out using a benchtop Eppendorf 5415R centrifuge at 4°C. Mitochondria were washed in ISB and centrifuged at 12 000 g for 5 min before re-suspension in ISB containing protease inhibitors (4 μg/ml each of antipan, pepstatin A and leupeptin plus 0.5 mM benzamidine and 0.5 mM PMSF). Mitochondria were incubated with digitonin (0.12 mg/mg of mitochondrial protein) at 4°C for 15 min on a rotary mixer, and the resulting mitoplasts collected by centrifugation at 9000 g for 10 min before resuspension in ISB containing protease inhibitors and PEG ether W1 (Sigma P7516, formerly known as Lubrol) at 0.16 mg/mg of mitochondrial protein. […]
An immobilized PAO matrix was synthesized by coupling 4-aminophenylarsine oxide to Affi-gel 10 (Bio-Rad Laboratories 153-6099) as described previously. The resin was washed twice in 10 volumes of PAO column buffer (PCB: 150 mM Na2SO4, 50 mM HEPES and 1 mM EGTA, pH 7.2) containing 0.5% (v/v) Triton X-100 and then resuspended to give a 50% (v/v) slurry ready for use. […] Samples were analysed by SDS/PAGE and Western blotting or analysed by Orbitrap MS in the University of Bristol Proteomics Facility. […] The integrated optical density for each band was calculated as the product of the ‘area’ and ‘mean grey value’ with subtraction of a background signal obtained for an equivalent adjacent area lacking any band. […]
(Immunoblotting shows a protein as a band on a membrane.)

Turning to `C=C1[C@@H]2CC[C@H]3[C@]4(C)C[C@H](O[C@@H]5O[C@H](CO)[C@@H](OS(=O)(=O)O)[C@H](OS(=O)(=O)O)[C@H]5OC(=O)CC(C)C)CC(C(=O)O)(C(=O)O)[C@H]4CC[C@]3(C2)[C@H]1O` [CAT, carboxyatractyloside], the “ANT binding to the PAO column” value is on record as “totally prevented”.
